In PubChem BioAssay (NCI):
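Cells were grown in 96-well plates and exposed to each compound for 48 hours at five concentrations; endpoints were interpolated linearly between bracketing concentrations, or set to the highest concentration if not reached. GI50: concentration for 50% inhibition of growth. TGI marks complete inhibition of growth.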

How the values were obtained:
Assay in all cases: DTP human tumour cell line panel, 48 h
LOX IMVI melanoma = system: LOX IMVI melanoma
IGROV1 ovarian = system: IGROV1 ovarian
HOP-62 NSCLC = system: HOP-62 NSCLC
SN12C renal = system: SN12C renal
UACC-257 melanoma = system: UACC-257 melanoma
OVCAR-4 ovarian = system: OVCAR-4 ovarian
UO-31 renal = system: UO-31 renal
A549 NSCLC = system: A549 NSCLC
NCI-H522 lung = system: NCI-H522 lung
SR leukemia = system: SR leukemia
SK-MEL-5 melanoma = system: SK-MEL-5 melanoma
SNB-19 CNS = system: SNB-19 CNS
EKVX NSCLC = system: EKVX NSCLC
SK-OV-3 ovarian = system: SK-OV-3 ovarian
HCT-15 colon = system: HCT-15 colon
SF-295 CNS = system: SF-295 CNS
NCI-H460 lung = system: NCI-H460 lung
MDA-MB-231 breast = system: MDA-MB-231 breast
NCI/ADR-RES ovarian = system: NCI/ADR-RES ovarian
MALME-3M melanoma = system: MALME-3M melanoma
NCI-H23 lung = system: NCI-H23 lung
SF-268 CNS = system: SF-268 CNS
NCI-H226 lung = system: NCI-H226 lung
HOP-92 NSCLC = system: HOP-92 NSCLC
HCT-116 colon = system: HCT-116 colon
ACHN renal = system: ACHN renal
K-562 leukemia = system: K-562 leukemia

In the case of O=C1c2ccccc2-c2c1c1c(O)cccc1n2-c1ccccc1, the GI50 (LOX IMVI melanoma) is reported as over 100 µM, the TGI (LOX IMVI melanoma) is reported as over 100 µM and the GI50 (IGROV1 ovarian) is reported as over 100 µM. The TGI (IGROV1 ovarian) was over 100 µM, the GI50 (HOP-62 NSCLC) was 66.3 µM and the TGI (HOP-62 NSCLC) was over 100 µM. For the same compound, the GI50 (SN12C renal) was over 100 µM, the TGI (SN12C renal) was over 100 µM and the GI50 (UACC-257 melanoma) was over 100 µM. For the same compound, the TGI (UACC-257 melanoma) was over 100 µM, the TGI (OVCAR-4 ovarian) was over 100 µM and the GI50 (UO-31 renal) was over 100 µM. The TGI (UO-31 renal) was over 100 µM, the GI50 (A549 NSCLC) was over 100 µM and the TGI (A549 NSCLC) was over 100 µM. The GI50 (NCI-H522 lung) was over 100 µM, the TGI (NCI-H522 lung) was over 100 µM and the GI50 (SR leukemia) was over 100 µM. For the same compound, the TGI (SR leukemia) was over 100 µM, the GI50 (SK-MEL-5 melanoma) was over 100 µM and the TGI (SK-MEL-5 melanoma) was over 100 µM. For the same compound, the GI50 (SNB-19 CNS) was over 100 µM, the TGI (SNB-19 CNS) was over 100 µM and the GI50 (EKVX NSCLC) was over 100 µM. The TGI (EKVX NSCLC) was over 100 µM, the GI50 (SK-OV-3 ovarian) was over 100 µM and the TGI (SK-OV-3 ovarian) was over 100 µM. The GI50 (HCT-15 colon) was over 100 µM, the TGI (HCT-15 colon) was over 100 µM and the GI50 (SF-295 CNS) was over 100 µM. For the same compound, the TGI (SF-295 CNS) was over 100 µM, the GI50 (NCI-H460 lung) was over 100 µM and the TGI (NCI-H460 lung) was over 100 µM. It also gave a GI50 (MDA-MB-231 breast) of over 100 µM, a TGI (MDA-MB-231 breast) of over 100 µM and a GI50 (NCI/ADR-RES ovarian) of over 100 µM. The TGI (NCI/ADR-RES ovarian) was over 100 µM, the GI50 (MALME-3M melanoma) was over 100 µM and the TGI (MALME-3M melanoma) was over 100 µM. For the same compound, the GI50 (NCI-H23 lung) was over 100 µM, the TGI (NCI-H23 lung) was over 100 µM and the GI50 (SF-268 CNS) was over 100 µM. It also gave a TGI (SF-268 CNS) of over 100 µM, a GI50 (NCI-H226 lung) of over 100 µM and a TGI (NCI-H226 lung) of over 100 µM. It also gave a TGI (HOP-92 NSCLC) of 0.035 µM, a GI50 (HCT-116 colon) of over 100 µM and a TGI (HCT-116 colon) of over 100 µM. For the same compound, the GI50 (ACHN renal) was over 100 µM, the TGI (ACHN renal) was over 100 µM and the GI50 (K-562 leukemia) was over 100 µM.
